One may read the solubility as the concentration that dissolves in the medium under given conditions.

The values that follow come from patent US7326288B2, “Trisazo compound, ink composition, and colored object” (Nippon Kayaku Kabushiki Kaisha, priority 2003, dated 2008).

Data set [1] is described as follows: solubility in water of the isolated trisazo compound. Type of data set: physicochemical.
Data set [2] can be described thus: Solubility Test (ammonia alkalinity, spot on filter paper). Type of data set: physicochemical. To be noted: aqueous buffer, thermodynamic from solid. As for the experimental part: Using ion exchanged water for a water, pH was adjusted at 9 to 9.5 with aqueous ammonia. They were treated with ultrasonic vessel at ordinary temperature. Toyo Filter Paper No. 131 was spotted with them, surface of which after dried was observed and solubility of which was determined. When a spot was uniform and insoluble material were not observed, it was judged to be soluble. When a spot was ununiform and insoluble material were observed, it was judged to be not soluble.

For `Nc1c(N=Nc2ccc3c(O)c(N=Nc4cc(C(=O)O)cc(C(=O)O)c4)c(S(=O)(=O)O)cc3c2S(=O)(=O)O)cc(S(=O)(=O)O)c2cc(S(=O)(=O)O)c(N=Nc3ccc(S(=O)(=O)O)cc3[N+](=O)[O-])c(O)c12` [compound 26], the solubility in data set [1] is no less than 100 mg/mL.
`Nc1c(N=Nc2ccc3c(O)c(N=Nc4cc(C(=O)O)ccc4C(=O)O)c(S(=O)(=O)O)cc3c2S(=O)(=O)O)cc(S(=O)(=O)O)c2cc(S(=O)(=O)O)c(N=Nc3ccc([N+](=O)[O-])cc3S(=O)(=O)O)c(O)c12` [compound 3] displayed a solubility in data set [1] of no less than 100 mg/mL.
Same read-out and setting: under `COc1ccc(N=Nc2c(S(=O)(=O)O)cc3c(S(=O)(=O)O)c(N=Nc4cc(S(=O)(=O)O)c5cc(S(=O)(=O)O)c(N=Nc6ccc([N+](=O)[O-])cc6S(=O)(=O)O)c(O)c5c4N)ccc3c2O)c(S(=O)(=O)O)c1` [compound 1] stands no less than 100 mg/mL; under `Nc1c(N=Nc2ccc3c(O)c(N=Nc4ccc([N+](=O)[O-])cc4S(=O)(=O)O)c(S(=O)(=O)O)cc3c2S(=O)(=O)O)cc(S(=O)(=O)O)c2cc(S(=O)(=O)O)c(N=Nc3ccc([N+](=O)[O-])cc3S(=O)(=O)O)c(O)c12` [compound 5], no less than 100 mg/mL; under `CNS(=O)(=O)c1ccc(N=Nc2c(S(=O)(=O)O)cc3c(S(=O)(=O)O)c(N=Nc4cc(S(=O)(=O)O)c5cc(S(=O)(=O)O)c(N=Nc6ccc([N+](=O)[O-])cc6S(=O)(=O)O)c(O)c5c4N)ccc3c2O)c(C(=O)O)c1` [compound 9], no less than 100 mg/mL.
`Nc1c(N=Nc2ccc3c(O)c(N=Nc4cc(S(=O)(=O)O)ccc4S(=O)(=O)O)c(S(=O)(=O)O)cc3c2S(=O)(=O)O)cc(S(=O)(=O)O)c2cc(S(=O)(=O)O)c(N=Nc3ccc([N+](=O)[O-])cc3S(=O)(=O)O)c(O)c12` [Formula (2-10)]: the solubility in data set [2] is no less than 120 mg/mL.
In data set [1], `Nc1c(N=Nc2ccc3c(O)c(N=Nc4cc(C(=O)O)cc(C(=O)O)c4)c(S(=O)(=O)O)cc3c2S(=O)(=O)O)cc(S(=O)(=O)O)c2cc(S(=O)(=O)O)c(N=Nc3ccc([N+](=O)[O-])cc3S(=O)(=O)O)c(O)c12` [compound 24] had a solubility of no less than 100 mg/mL.
For the molecule `Nc1c(N=Nc2ccc3c(O)c(N=Nc4ccc(S(N)(=O)=O)cc4C(=O)O)c(S(=O)(=O)O)cc3c2S(=O)(=O)O)cc(S(=O)(=O)O)c2cc(S(=O)(=O)O)c(N=Nc3ccc([N+](=O)[O-])cc3S(=O)(=O)O)c(O)c12` [compound 4], the solubility in data set [1] was no less than 100 mg/mL.
Same read-out and setting: under `Nc1c(N=Nc2ccc3c(O)c(N=Nc4ccc(S(=O)(=O)O)cc4C(=O)O)c(S(=O)(=O)O)cc3c2S(=O)(=O)O)cc(S(=O)(=O)O)c2cc(S(=O)(=O)O)c(N=Nc3ccc([N+](=O)[O-])cc3S(=O)(=O)O)c(O)c12` [compound 2] stands no less than 100 mg/mL; under `Nc1c(N=Nc2ccc3c(O)c(N=Nc4cc(S(=O)(=O)O)c5cc([N+](=O)[O-])cc(S(=O)(=O)O)c5c4)c(S(=O)(=O)O)cc3c2S(=O)(=O)O)cc(S(=O)(=O)O)c2cc(S(=O)(=O)O)c(N=Nc3ccc([N+](=O)[O-])cc3S(=O)(=O)O)c(O)c12` [compound 20], no less than 100 mg/mL.
